Patent publication US10906890B2, “Triazole phenyl compounds as agonists of the APJ receptor” (AMGEN INC., priority 2016, dated 2021)

The molecules below were run against human APJ receptor (Homo sapiens (Human), UniProt P35414) (assay: [35S]GTPγS binding assay on membranes from CHO cells stably expressing human APJ receptor). Settings: means of several independent experiments, read-out: Activity hAPJ SPA EC50 IP.
Sequence of human APJ receptor (P35414 whole entry): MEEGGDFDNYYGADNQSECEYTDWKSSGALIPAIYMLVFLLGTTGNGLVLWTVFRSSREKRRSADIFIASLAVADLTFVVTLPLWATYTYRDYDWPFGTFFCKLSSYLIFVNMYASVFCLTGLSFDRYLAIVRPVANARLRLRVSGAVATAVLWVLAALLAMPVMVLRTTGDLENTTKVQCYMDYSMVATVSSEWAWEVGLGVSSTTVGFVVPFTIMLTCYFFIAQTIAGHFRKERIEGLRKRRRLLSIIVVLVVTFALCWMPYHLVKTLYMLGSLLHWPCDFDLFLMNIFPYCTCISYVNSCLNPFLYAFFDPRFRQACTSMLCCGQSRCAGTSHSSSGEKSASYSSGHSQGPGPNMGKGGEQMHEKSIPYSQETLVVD
Assay type: biochemical
Summary of the method: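 Membranes from CHO cells stably expressing FLAG-tagged human APJ incubated with [35S]GTPγS in buffer with optimized GDP, MgCl2 and NaCl levels, 90 min at RT. Signal read by imaging; EC50 by non-linear regression from means of several independent experiments.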
CO[C@H](c1ncc(Cl)cn1)[C@H](C)S(=O)(=O)Nc1nnc(-c2ccccc2)n1C(C)C [Example 110.0] was tested, and the EC50 was 75 nM. COCC1(n2c(NS(=O)(=O)[C@@H](C)[C@H](OC)c3ncc(Cl)cn3)nnc2-c2cccc3nn(C)cc23)CC1 [Example 114.0] was tested, and the EC50 was 53 nM. With CO[C@H](c1ncc(Cl)cn1)[C@H](C)S(=O)(=O)Nc1nnc(-c2cccc3nn(C)cc23)n1C1CC1 [Example 115.0] the EC50 was 11 nM. CO[C@H](c1ncc(Cl)cn1)[C@H](C)S(=O)(=O)Nc1nnc(-c2cccc3nn(C)cc23)n1C(C)C [Example 116.0] showed an EC50 of 220 nM. For COCC1(n2c(NS(=O)(=O)[C@@H](C)[C@H](OC)c3ncc(Cl)cn3)nnc2-c2cccc3nn(C)cc23)CCC1 [Example 117.0], the EC50 was 340 nM. With COc1ccccc1-c1nnc(NS(=O)(=O)[C@@H](C)[C@H](OC)c2ncc(Cl)cn2)n1[C@@H]1CCCOC1 [Example 118.0] the EC50 was 180 nM. Molecule COc1cccc(-c2nnc(NS(=O)(=O)[C@@H](C)[C@H](OC)c3ncc(Cl)cn3)n2[C@H]2CCCOC2)c1 [Example 119.0] has an EC50 of 22 nM. Work on Cc1cnc([C@@H](C)[C@H](C)S(=O)(=O)Nc2nnc(-c3cccc4nn(C)cc34)n2C2CCOCC2)nc1 [Example 120.0] yielded an EC50 of 590 nM. Work on CO[C@H](c1ncc(Cl)cn1)[C@H](C)S(=O)(=O)Nc1nnc(-c2cccc(S(C)(=O)=O)c2)n1C1CC1 [Example 121.0, (1R,2S)-1-(5-Chloropyrimidin-2-yl)-N-(4-cyclopropyl-5-(3-(methylsulfonyl)phenyl)-4H-1,2,4-triazol-3-yl)-1-methoxypropane-2-sulfonamide] yielded an EC50 of 590 nM. CO[C@H](c1ncc(Cl)cn1)[C@H](C)S(=O)(=O)Nc1nnc(-c2cccc(OC(F)F)c2)n1C1CC1 [Example 122.0, (1R,2S)-1-(5-Chloropyrimidin-2-yl)-N-(4-cyclopropyl-5-(3-(difluoromethoxy)phenyl)-4H-1,2,4-triazol-3-yl)-1-methoxypropane-2-sulfonamide] showed an EC50 of 250 nM. In the case of COCC(COC)n1c(NS(=O)(=O)[C@@H](C)[C@@H](OC(C)C)c2ncc(Cl)cn2)nnc1-c1ccccc1 [Example 123.0], the EC50 is reported as 7.2 nM. COC[C@@H](C)n1c(NS(=O)(=O)[C@@H](C)[C@H](OC)c2ncc(Cl)cn2)nnc1-c1ccccc1 [Example 124.0] was tested, and the EC50 was 57 nM. COC[C@H](C)n1c(NS(=O)(=O)[C@@H](C)[C@H](C)c2ncc(Cl)cn2)nnc1-c1ccccc1 [Example 126.0] was tested, and the EC50 was 17 nM. COc1ncnc(OC)c1-n1c(NS(=O)(=O)[C@@H](C)[C@H](C)c2ccc(Cl)cn2)nnc1-c1ccccc1 [Example 127.0] showed an EC50 of 0.96 nM. COc1cnc([C@@H](C)[C@H](C)S(=O)(=O)Nc2nnc(-c3ccccc3Br)n2C2COC(C)(C)OC2)nc1 [Example 128.0] was tested, and the EC50 was 910 nM. COCCn1c(NS(=O)(=O)[C@@H](C)[C@H](OC)c2ncc(Cl)cn2)nnc1-c1ccccc1 [Example 129.0] gave an EC50 of 14 nM.

What follows are molecules tested on Heart failure rat model (MI Rat Model) (assay: In vivo heart failure (MI) rat model, cardiac contractility). Settings: heart failure rats in vivo, acute settings, with ACE inhibitor captopril.
Protocol: Based on the ex vivo findings in isolated heart assay, APJ agonists were dosed in vivo to investigate the translation of cardiac contractility in in vivo settings. Male Lewis rats (Charles River, USA) at 2-3 months of age were used for the study. Heart failure was induced by permanent ligation of the left descending coronary artery which results in injury to the heart with an ejection fraction of <35%. APJ agonists were administered dose dependently acutely for a period of 30 min. Administration of example compounds lead to an increase in cardiac contractility as measured by dP/dtmax (derivative of left ventricular pressure) (Table 29).
With C[C@H](CS)C(=O)N1CCC[C@H]1C(=O)O [Captopril, captopril] the “improvement in contractility or ejection fraction” value was “does not show a marked improvement in contractility or ejection fraction”.

What follows are molecules tested against human APJ-AT1R (angiotensin Type 1) double stable CHO cell line (Homo sapiens (Human), UniProt P35414) (assay: IP1 accumulation (TR-FRET) with AngII in APJ-AT1R double stable CHO cells). Settings: fixed concentration of agonist with different concentrations of AngII.
Sequence of human APJ-AT1R (angiotensin Type 1) double stable CHO cell line (P35414 whole entry): as above
Assay type: cell-based
Protocol: Briefly, the CHO-K1 APJ/AT1R cells were seeded in culture medium of DMEM-F12 and 10% FBS at a density of 15 k/well in a 96 well plate overnight. The next day, the culture medium was replaced with medium containing no serum for 4 hours. The compound AngII at a range of concentrations (1 pM-10 μM) with or without different concentrations of APJ agonists were diluted in stimulation buffer and added to the cell plate. The plate was sealed and incubated for 1 hour. This was followed by addition of IP-d2 conjugate followed by europium cryptate antibody conjugate into the wells. The plate was sealed, followed with incubation for 2 hours at RT. Time-resolved fluorescence resonance energy (TR-FRET) at 620 nm and 665 nm was measured after 2 hours with an Envision reader. The signal ratios and delta F were calculated and the amount of IP1 produced was inversely proportional to the TR-FRET ratio, 665/620 nm.
In the case of CCCCc1nc(Cl)c(CO)n1Cc1ccc(-c2ccccc2-c2nn[nH]n2)cc1 [losartan], the “positive cooperativity on AngII IP1 response” value is reported as “relieved this cooperativity”.
